≈ marks a conversion by molar mass, not a printed value. Where a SMILES comes first, the peptide text is derived from it. The star is where a group is joined. Palmitoyl = CCCCCCCCCCCCCCCC(=O)*; Myristoyl = CCCCCCCCCCCCCC(=O)*
Assays:
Type in all cases: cell-based
[1] = test system: Aspergillus brasiliensis (ATCC 16404); details: ATCC 16404, 48 h
How it was run: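 Lowest lipopeptide concentration (μg/mL) with no observable growth gave the MIC, alongside MBC/MFC, by CLSI microbroth dilution. Fungi: Sabouraud dextrose broth, 10^3 cfu/mL start, 25°C for 48 h; bacteria: MH broth, 10^5 cfu/mL, 37°C for 18 h. Run in triplicate, three separate days.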

[2] = test system: Proteus vulgaris (PCM 2668); details: 18 h
How it was run: (§1)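 CLSI broth microdilution: bacteria in Mueller-Hinton broth at 10^5 cfu/mL inoculum, 18 h at 37°C; fungi in Sabouraud Dextrose broth at 10^3 cfu/mL, 48 h at 25°C. MIC (μg/mL) is the lowest lipopeptide concentration inhibiting visible growth; triplicate on three days.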

[3] = test system: Bacillus subtilis (ATCC 6633); details: for MIC Bacillus subtillis: ATCC 6633, 18 h; for MBC Bacillus subtillis: ATCC 6633, 24 h
How it was run: (§2)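 Broth microdilution per CLSI: Mueller-Hinton broth, 10^5 cfu/mL inoculum, 18 h at 37°C for bacteria; Sabouraud dextrose broth, 10^3 cfu/mL, 48 h at 25°C for fungi. MIC (μg/mL) is the lowest lipopeptide concentration inhibiting visible growth; MBC/MFC also determined. Triplicate on three days.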

[4] = test system: Candida tropicalis (PCM 2681); details: PCM 2681, 48 h
How it was run: as §1

[5] = test system: Enterococcus faecalis (ATCC 29212); details: for MBC Enterococcus fecalis, lipopeptides without TFA counter ion / MIC Enterococcus fecalis / MIC Enterococcus fecalis, lipopeptides without TFA counter ion: ATCC 29212, 18 h; for MBC Enterococcus fecalis: ATCC 29212, 24 h
How it was run: as §2

[6] = test system: Klebsiella pneumoniae (ATCC 700603); details: for MBC Klebsiella pneumoniae, lipopeptides without TFA counter ion / MIC Klebsiella pneumoniae / MIC Klebsiella pneumoniae, lipopeptides without TFA counter ion: ATCC 700603, 18 h; for MBC Klebsiella pneumoniae: ATCC 700603, 24 h
How it was run: as §1

[7] = test system: Staphylococcus aureus (ATCC 25923); details: for MBC Staphylococcus aureus, lipopeptides without TFA counter ion / MIC Staphylococcus aureus / MIC Staphylococcus aureus, lipopeptides without TFA counter ion: ATCC 25923, 18 h; for MBC Staphylococcus aureus: ATCC 25923, 24 h
How it was run: as §1

[8] = test system: Pseudomonas aeruginosa (ATCC 9027); details: ATCC 9027, 18 h
How it was run: as §1

[9] = test system: Escherichia coli (ATCC 25922); details: for MBC Escherichia coli, lipopeptides without TFA counter ion / MIC Escherichia coli / MIC Escherichia coli, lipopeptides without TFA counter ion: ATCC 25922, 18 h; for MBC Escherichia coli: ATCC 25922, 24 h
How it was run: as §1

[10] = test system: Staphylococcus epidermidis (PCM 2118); details: for MIC Staphylococcus epidermidis: PCM 2118, 18 h; for MBC Staphylococcus epidermidis: PCM 2118, 24 h
How it was run: as §2

[11] = test system: Candida albicans (ATCC 10231); details: ATCC 10231, 48 h
How it was run: as §1

[12] = test system: Proteus vulgaris (PCM 2668); details: 24 h
human red blood cells = details: 1 h
How it was run: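 Washed donor erythrocytes (4% v/v in PBS, EDTA-anticoagulated) incubated with graded lipopeptide concentrations for 1 h at 37 °C; hemoglobin release read at 550 nm in supernatants. Scaled between 0.1% Triton X-100 (100%) and PBS (0%); MHC is the lowest concentration giving 10% hemolysis.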

[13] = test system: Candida albicans (ATCC 10231)
[14] = test system: Pseudomonas aeruginosa (ATCC 9027); details: ATCC 9027, 24 h

Structure (SMILES) | MFC Aspergillus brasiliensis [1] [µg/mL] | MIC Aspergillus brasiliensis [1] [µg/mL] | MIC Proteus vulgaris [2] [µg/mL] | MIC Bacillus subtillis [3] [µg/mL] | MBC Bacillus subtillis [3] [µg/mL] | MFC Candida tropicalis [4] [µg/mL] | MIC Candida tropicalis [4] [µg/mL] | MBC Enterococcus fecalis, lipopeptides without TFA counter ion [5] [µg/mL] | MIC Enterococcus fecalis [5] [µg/mL] | MIC Enterococcus fecalis, lipopeptides without TFA counter ion [5] [µg/mL] | MBC Enterococcus fecalis [5] [µg/mL] | MBC Klebsiella pneumoniae, lipopeptides without TFA counter ion [6] [µg/mL] | MIC Klebsiella pneumoniae [6] [µg/mL] | MIC Klebsiella pneumoniae, lipopeptides without TFA counter ion [6] [µg/mL] | MBC Klebsiella pneumoniae [6] [µg/mL] | MBC Staphylococcus aureus, lipopeptides without TFA counter ion [7] [µg/mL] | MIC Staphylococcus aureus [7] [µg/mL] | MIC Staphylococcus aureus, lipopeptides without TFA counter ion [7] [µg/mL] | MBC Staphylococcus aureus [7] [µg/mL] | MIC Pseudomonas aeruginosa [8] [µg/mL] | also measured
CCCCCCCCCCCCCC(=O)N[C@@H](CCCCN)C(=O)N[C@@H](CCCCN)C(=O)N[C@@H](CCCCN)C(=O)N[C@@H](CCCCN)C(N)=O [C14-KKKK-NH2] (Myristoyl-KKKK-NH2) | 64 (≈ 86.5 µM) | 64 (≈ 86.5 µM) | >512 | 4 (≈ 5.4 µM) | 4 (≈ 5.4 µM) | 128 (≈ 173 µM) | 128 (≈ 173 µM) | 64 (≈ 86.5 µM) | 64 (≈ 86.5 µM) | 64 (≈ 86.5 µM) | 64 (≈ 86.5 µM) | 128 (≈ 173 µM) | 128 (≈ 173 µM) | 128 (≈ 173 µM) | 256 (≈ 346 µM) | 128 (≈ 173 µM) | 128 (≈ 173 µM) | 128 (≈ 173 µM) | 128 (≈ 173 µM) | 256 (≈ 346 µM) | MBC Escherichia coli, lipopeptides without TFA counter ion [9]: 256 µg/mL (≈ 346 µM); MIC Escherichia coli [9]: 256 µg/mL (≈ 346 µM); MIC Escherichia coli, lipopeptides without TFA counter ion [9]: 256 µg/mL (≈ 346 µM); MBC Escherichia coli [9]: 256 µg/mL (≈ 346 µM); MIC Staphylococcus epidermidis [10]: 16 µg/mL (≈ 21.6 µM); MBC Staphylococcus epidermidis [10]: 16 µg/mL (≈ 21.6 µM); MFC Candida albicans [11]: 128 µg/mL (≈ 173 µM); MIC Candida albicans [11]: 128 µg/mL (≈ 173 µM); MIC Candida albicans, lipopeptides without TFA counter ion [11]: 256 µg/mL (≈ 346 µM); MBC Proteus vulgaris [12]: >512 µg/mL; Hemolysis HC10 (MHC), concentration of lipopeptide inducing 10% of hemolysis (human red blood cells): 256 µg/mL; MFC Candida albicans, lipopeptides without TFA counter ion [13]: 256 µg/mL (≈ 346 µM); MBC Pseudomonas aeruginosa [14]: 512 µg/mL (≈ 692 µM)
CCCCCCCCCCCCCCCC(=O)N[C@@H](CCCCN)C(=O)NCC(=O)N[C@@H](CCCCN)C(=O)NCC(N)=O [C16-KGKG-NH2] (Palmitoyl-KGKG-NH2) | 128 (≈ 205 µM) | 128 (≈ 205 µM) | >512 | 4 (≈ 6.39 µM) | 4 (≈ 6.39 µM) | 256 (≈ 409 µM) | 256 (≈ 409 µM) | 16 (≈ 25.6 µM) | 16 (≈ 25.6 µM) | 16 (≈ 25.6 µM) | 16 (≈ 25.6 µM) | 32 (≈ 51.1 µM) | 16 (≈ 25.6 µM) | 16 (≈ 25.6 µM) | 16 (≈ 25.6 µM) | 16 (≈ 25.6 µM) | 16 (≈ 25.6 µM) | 8 (≈ 12.8 µM) | 32 (≈ 51.1 µM) | 8 (≈ 12.8 µM) | MBC Escherichia coli, lipopeptides without TFA counter ion [9]: 8 µg/mL (≈ 12.8 µM); MIC Escherichia coli [9]: 16 µg/mL (≈ 25.6 µM); MIC Escherichia coli, lipopeptides without TFA counter ion [9]: 8 µg/mL (≈ 12.8 µM); MBC Escherichia coli [9]: 16 µg/mL (≈ 25.6 µM); MIC Staphylococcus epidermidis [10]: 4 µg/mL (≈ 6.39 µM); MBC Staphylococcus epidermidis [10]: 4 µg/mL (≈ 6.39 µM); MFC Candida albicans [11]: 128 µg/mL (≈ 205 µM); MIC Candida albicans [11]: 128 µg/mL (≈ 205 µM); MIC Candida albicans, lipopeptides without TFA counter ion [11]: 128 µg/mL (≈ 205 µM); MBC Proteus vulgaris [12]: >512 µg/mL; Hemolysis HC10 (MHC), concentration of lipopeptide inducing 10% of hemolysis (human red blood cells): 64 µg/mL; MFC Candida albicans, lipopeptides without TFA counter ion [13]: 128 µg/mL (≈ 205 µM); MBC Pseudomonas aeruginosa [14]: 8 µg/mL (≈ 12.8 µM)
CCCCCCCCCCCCCCCC(=O)N[C@@H](CCCCN)C(=O)NCC(N)=O [C16-KG-NH2] (Palmitoyl-Lys-Gly-NH2) | 512 (≈ 1160 µM) | 512 (≈ 1160 µM) | >512 | 4 (≈ 9.08 µM) | 4 (≈ 9.08 µM) | 512 (≈ 1160 µM) | 256 (≈ 581 µM) | 8 (≈ 18.2 µM) | 16 (≈ 36.3 µM) | 4 (≈ 9.08 µM) | 16 (≈ 36.3 µM) | 256 (≈ 581 µM) | 128 (≈ 290 µM) | 128 (≈ 290 µM) | 256 (≈ 581 µM) | 4 (≈ 9.08 µM) | 8 (≈ 18.2 µM) | 4 (≈ 9.08 µM) | 8 (≈ 18.2 µM) | 256 (≈ 581 µM) | MBC Escherichia coli, lipopeptides without TFA counter ion [9]: 256 µg/mL (≈ 581 µM); MIC Escherichia coli [9]: 256 µg/mL (≈ 581 µM); MIC Escherichia coli, lipopeptides without TFA counter ion [9]: 256 µg/mL (≈ 581 µM); MBC Escherichia coli [9]: 256 µg/mL (≈ 581 µM); MIC Staphylococcus epidermidis [10]: 4 µg/mL (≈ 9.08 µM); MBC Staphylococcus epidermidis [10]: 4 µg/mL (≈ 9.08 µM); MFC Candida albicans [11]: 128 µg/mL (≈ 290 µM); MIC Candida albicans [11]: 128 µg/mL (≈ 290 µM); MIC Candida albicans, lipopeptides without TFA counter ion [11]: 128 µg/mL (≈ 290 µM); MBC Proteus vulgaris [12]: >512 µg/mL; Hemolysis HC10 (MHC), concentration of lipopeptide inducing 10% of hemolysis (human red blood cells): 256 µg/mL; MFC Candida albicans, lipopeptides without TFA counter ion [13]: 128 µg/mL (≈ 290 µM); MBC Pseudomonas aeruginosa [14]: 1000 µg/mL (≈ 2270 µM)
CCCCCCCCCCCCCCCC(=O)N[C@@H](CCCCN)C(=O)N[C@@H](CCCCN)C(=O)N[C@@H](CCCCN)C(N)=O [C16-KKK-NH2] | 128 (≈ 200 µM) | 128 (≈ 200 µM) | >512 | 8 (≈ 12.5 µM) | 8 (≈ 12.5 µM) | 128 (≈ 200 µM) | 128 (≈ 200 µM) | 8 (≈ 12.5 µM) | 16 (≈ 25 µM) | 8 (≈ 12.5 µM) | 16 (≈ 25 µM) | 4 (≈ 6.25 µM) | 4 (≈ 6.25 µM) | 4 (≈ 6.25 µM) | 4 (≈ 6.25 µM) | 8 (≈ 12.5 µM) | 8 (≈ 12.5 µM) | 4 (≈ 6.25 µM) | 8 (≈ 12.5 µM) | 8 (≈ 12.5 µM) | MBC Escherichia coli, lipopeptides without TFA counter ion [9]: 8 µg/mL (≈ 12.5 µM); MIC Escherichia coli [9]: 8 µg/mL (≈ 12.5 µM); MIC Escherichia coli, lipopeptides without TFA counter ion [9]: 4 µg/mL (≈ 6.25 µM); MBC Escherichia coli [9]: 16 µg/mL (≈ 25 µM); MIC Staphylococcus epidermidis [10]: 4 µg/mL (≈ 6.25 µM); MBC Staphylococcus epidermidis [10]: 4 µg/mL (≈ 6.25 µM); MFC Candida albicans [11]: 128 µg/mL (≈ 200 µM); MIC Candida albicans [11]: 128 µg/mL (≈ 200 µM); MIC Candida albicans, lipopeptides without TFA counter ion [11]: 128 µg/mL (≈ 200 µM); MBC Proteus vulgaris [12]: >512 µg/mL; MFC Candida albicans, lipopeptides without TFA counter ion [13]: 128 µg/mL (≈ 200 µM); MBC Pseudomonas aeruginosa [14]: 8 µg/mL (≈ 12.5 µM)

Reference: paper PMC5285354, “Cationic Net Charge and Counter Ion Type as Antimicrobial Activity Determinant Factors of Short Lipopeptides” (Frontiers in Microbiology, 2017)
